Measurements from patent US20050272688A1, “Combined treatment with gemcitabine and an epidermal growth factor receptor kinase inhibitor” (priority 2004, published 2005).
Several values for one entry are separate records, joined by “and”; a condition that tells them apart may be missing. Equal values may be shown once. Read-outs that look alike come from different tables or passages of the source.

Columns and labels:
NSCLC = conditions: single agent, stage 1V patients; cited from earlier work
H460a NSCLC xenograft = test: Tumor growth inhibition in H460a NSCLC xenograft model; format: in vivo, athymic nude mice
Protocol: (§1) Mice were implanted with H460a NSCLC cells. […] Tumor size was measured 3 times per week. Values are means, n=10.
as §1
(§2) H460a cells (provided by Dr Jack Roth, Md., Anderson) were grown in Dulbecco's Modified Eagle Media (DMEM) supplemented with 10% Foetal Bovine Serum (FBS). A549 cells (American Type Culture Collection [Manassas, Va.] were grown in Roswell Park Memorial Institute medium (RPMI) 1640+10% FBS. The cell concentrations for implant were 1×10^7 cells/0.2 mL for H460a and 7.5×10^6 cells/0.2 mL for A549.
(§3) Cells were suspended in phosphate-buffered saline, and implanted subcutaneously in the right flank of each mouse. Once palpable tumours were established, animals were randomised so that all groups had similar starting mean tumour volumes of 100-150 mm^3. Tumour measurements and mouse weights were taken three times per week. Animals were individually monitored throughout the experiment.
(§4) All groups were treated daily for 3 weeks.
(§5) Gemcitabine was given intraperitoneally (i.p.) using a 3 mL syringe and 26-gauge needle. All groups were treated every 3 days for 3 weeks (a total of six injections).
(§6) Weight loss was calculated as percent change in mean group body weight, using the formula: ((W−W0)/W0)×100 • where ‘W’ represents mean body weight of the treated group at a particular day, and ‘W0’ represents mean body weight of the same group at start of treatment. Maximum weight loss was also calculated using the above formula, giving the maximum percentage of body weight lost at any time in the entire experiment for a particular group. Treatment efficacy was assessed by tumor growth inhibition. Tumour volumes of treated groups were given as percentages of tumor volumes of the control groups (% T/C), using the formula: 100×((T−T0)/(C−C0)) • where ‘T’ represents mean tumor volume of a treated group on a specific day during the experiment, ‘T0’ represented mean tumor volume of the same group on the first day of treatment, C represents mean tumor volume of a control group on a particular day of the experiment, and C0 represents mean tumor volume of the same group on the first day of treatment.
(§7) Tumor growth inhibition was calculated using the formula: [127] 100% T/C
(§8) Tumor volume (mm^3) was calculated using the ellipsoid formula: (D×(d^2))/2 • where ‘D’ represents the large diameter of the tumor, and ‘d’ represents the small diameter. In some cases, tumor regression and/or percentage change in tumor volume was calculated using the formula: ((T−T0)/T0)×100 • where ‘T’ represents mean tumor volume of the treated group at a particular day, and ‘T0’ represents mean tumor volume of the same treated group at the start of treatment.

A549 NSCLC xenograft = format: in vivo
Protocol: Mice were implanted with A549 NSCLC cells. […] Tumor size was measured 3 times per week. Values are means, n=10.
as §2, §3, §4, §5, §6, §7, §8

in vivo = conditions: for MTD at 14 days: female, mouse, in vivo
Protocol: FIG. 6: Maximum tolerated dose assessment in non-tumour bearing athymic nude mice treated for 14 days (n=5).
Female, athymic, nu/nu-nuBR nude mice (Charles River Labs, Wilmington, USA) of around 10-12 weeks and weighing 23-25 g were used. The health of the mice was assessed daily by observation and analysis of blood samples taken from sentinel animals on the shared shelf racks. All animals were allowed to acclimatise and recover from shipping-related stress for 1 week.

NSCLC xenograft tumor = test: Immunohistochemistry of xenograft tumors (Ki-67, TUNEL apoptosis, CD31 microvascular density); format: in vivo, athymic nude mice
Protocol: Sections for immunohistochemistry were cut at 5μ.
To block non-specific tissue-binding sites, sections were blocked by 10% normal serum from the species in which the secondary antibody was raised. Sections were incubated for 20 minutes at room temperature in serum prepared in Ultra-V (Lab Vision).

[1] = Chronic-dose plasma and tumor concentrations of erlotinib in tumor-bearing mice; format: in vivo, nu/nu athymic mice; conditions: for concentration at 1 h / concentration at 6 h: nu/nu athymic, mouse; for concentration at 1 h: 1 hour post dose; for concentration at 6 h: 6 hours post dose
Protocol: On day 28 post tumor implant, blood (from the retro-orbital sinus) and tumor samples were collected at 1 and 6 hours post dosing. […] Values are means±SD, n=3.
(§9) For single-dose pharmacokinetics (PK), blood samples from three mice per time point were collected by cardiac puncture at 5, 15, 30, 60 minutes and 2, 4, 8, 16, 24 hours post-dose. For chronically treated animals, blood samples from two or three mice per time point were collected via the retro-orbital sinus at 1 and 6 hours. Collection tubes contained ethylene diamine tetra-acetic acid (EDTA) as anticoagulant. Samples were stored at −70° C. […] PK parameters were estimated by non-compartmental analysis of the composite data, using the PK evaluation programme WinNonlin PRO® version 3.1 (Pharsight Inc).

[2] = Necropsy, haematology, clinical chemistry and histology of treated mice; format: in vivo, athymic nude mice
Excerpt: At necropsy, skin samples were fixed in 10% buffered formalin, embedded in paraffin, sectioned at 5 μand stained with haematoxylin and eosin.
Five mice per treatment from all remaining groups were given a full necropsy at the end of the study. Whole blood was also collected from these mice for haematology and clinical chemistry.

[3] = Single-dose pharmacokinetics of erlotinib in non-tumor bearing mice; format: in vivo, female nu/nu athymic mice
Protocol: as §9
The doses refer to the hydrochloride salt with an active drug (free base) content of 91.5%. […] Three animals per time point were evaluated for PK data (FIG. 4).

[4] = plasma, oral 6.3-150.0 mg/kg daily, highest value, read-out: Plasma concentration
[5] = H460a tumor, oral 150 mg/kg, read-out: Mean tumor concentration

CC(=O)O[C@H]1C(=O)[C@@]2(C)[C@H]([C@H](OC(=O)c3ccccc3)[C@]3(O)C[C@H](OC(=O)[C@H](O)[C@@H](NC(=O)c4ccccc4)c4ccccc4)C(C)=C1C3(C)C)[C@]1(OC(C)=O)CO[C@@H]1C[C@@H]2O [paclitaxel]
Response rate (NSCLC): 21% to 24%

Nc1ccn([C@@H]2O[C@H](CO)[C@@H](O)C2(F)F)c(=O)n1 [gemcitabine]
Tumor growth inhibition (H460a NSCLC xenograft; combination study, gemcitabine 30 mg/kg i.p. every 3 days alone): 64%
Tumor growth inhibition (H460a NSCLC xenograft; combination study, gemcitabine 120 mg/kg i.p. every 3 days alone): 93%
Tumor growth inhibition (A549 NSCLC xenograft; gemcitabine 30 mg/kg alone, day 47): 42%
Extent of partial regression (A549 NSCLC xenograft; gemcitabine 120 mg/kg alone): 5%
Number of partial regressions (A549 NSCLC xenograft; gemcitabine 120 mg/kg alone): one
Tumor growth inhibition (A549 NSCLC xenograft; gemcitabine 120 mg/kg alone, day 47): 75%
MTD at 14 days (in vivo; every 3 days): 120 mg/kg

C#Cc1cccc(Nc2ncnc3cc(OCCOC)c(OCCOC)cc23)c1 [erlotinib, [6,7-bis(2-methoxyethoxy)-4-quinazolin-4-yl]-(3-ethynylphenyl) amine]
Ki-67 proliferative index (NSCLC xenograft tumor; erlotinib 100 mg/kg, both NSCLC xenograft tumor models): mild decrease
Angiogenesis as microvascular density (MVD), CD31 staining (NSCLC xenograft tumor; erlotinib monotherapy): no clear effect
Frequency of apoptosis in tumor cells (NSCLC xenograft tumor; erlotinib monotherapy, treated xenografts): no significant difference
Dose proportionality of exposure ([1]; ascending oral doses 6.3-150.0 mg/kg, tumor-bearing mice): more than dose-proportional
concentration at 1 h [1, 4]: ≤ 16700 ng/mL
concentration at 6 h [1, 4]: ≤ 8870 ng/mL
concentration at 1 h [1, 5]: 4800 ng/g
concentration at 6 h [1, 5]: 3090 ng/g
Skin lesion histology ([2]; erlotinib 100 mg/kg/day for 21 days): diffuse, mild to moderate epidermal acanthosis, epidermal hyperkeratosis, focal escharosis, and infiltration of mostly acute inflammatory cells in the dermis
Changes in haematology or clinical chemistry parameters ([2]; erlotinib monotherapy): no changes
Treatment-related macroscopic changes in the skin ([2]; erlotinib monotherapy): substantial reddening and crusting of the skin of the muzzle
Dose proportionality of exposure (AUC) ([3]; 20 vs 100 mg/kg single dose): dose-proportional
MRT ([3]; female, nu/nu athymic, mouse, plasma, po, single 20 and 100 mg/kg by gavage, read-out: Average mean residence time): ~7 h
half-life ([3]; female, nu/nu athymic, mouse, plasma, po, single 20 and 100 mg/kg by gavage, read-out: Mean apparent terminal half-life (converted)): ~4 h
AUC(0-t) ([3]; female, nu/nu athymic, mouse, po, single 20 mg/kg by gavage, plasma): 33.5 µg·h/mL
AUC(0-t) ([3]; female, nu/nu athymic, mouse, po, single 100 mg/kg by gavage, plasma): ~196 µg·h/mL
Mean maximum plasma concentration ([3]; single 20 mg/kg by gavage): ~9,100 ng/mL
Mean maximum plasma concentration ([3]; single 100 mg/kg by gavage): approximately 24,000 ng/mL
Time of maximum plasma concentration ([3]; single 20 and 100 mg/kg by gavage): 0.5-1.0 hours post dose
Tumor growth inhibition (H460a NSCLC xenograft; dose response study, 6.25 mg/kg oral daily, day 28): 28%
Tumor growth inhibition (H460a NSCLC xenograft; dose response study, 12.5 mg/kg oral daily, day 28): 36%
Tumor growth inhibition (H460a NSCLC xenograft; dose response study, 25 mg/kg oral daily, day 28): 46%
Tumor growth inhibition (H460a NSCLC xenograft; dose response study, 100 mg/kg oral daily, day 28 post tumor implantation): 61%
Tumor regressions (H460a NSCLC xenograft; dose response study, all dose groups): no partial or complete regressions
Tumor growth inhibition (A549 NSCLC xenograft; erlotinib 25 mg/kg alone, day 47): 48%
Extent of partial regression (A549 NSCLC xenograft; erlotinib 100 mg/kg alone): 16% and 7%
Number of partial regressions (A549 NSCLC xenograft; erlotinib 100 mg/kg alone): two
Tumor growth inhibition (A549 NSCLC xenograft; erlotinib 100 mg/kg alone, day 47 post tumor implantation (treatment day 19)): 87%
Tolerability (in vivo; 150 mg/kg for 3 weeks, previous efficacy studies (unpublished)): well tolerated
Toxicity outcome (in vivo; 200 mg/kg group): marked weight loss
Toxicity outcome (in vivo; 400 mg/kg group): One mouse in the 400 mg/kg group died
MTD at 14 days (in vivo; oral daily, 14 days): 100 mg/kg
